What was measured:
Assay in all cases: post-emergence herbicidal activity, greenhouse
Type in all cases: in vivo
Common Lambsquarters = test system: Common Lambsquarters
How it was run: (§1)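 Candidate chemical is applied by atomizer at the indicated rates to emerged plants of 2–3 weeks, spray containing about 0.4 wt% emulsifier. Effects are judged as injury against unsprayed control pans, approximately two and four weeks post-application.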

Barnyardgrass = test system: Barnyardgrass
How it was run: as §1

Large Crabgrass = settings: Table III
How it was run: as §1

Velvetleaf = test system: Velvetleaf
How it was run: as §1

Wild Buckwheat = settings: Table III
How it was run: as §1

Pennsylvania Smartweed = test system: Pennsylvania Smartweed
How it was run: as §1

Soybean = settings: Table III
How it was run: as §1

[1] = Table II, 2 WAT, 5.6 kg/h, formulated in anhydrous tetrahydrofuran
[2] = Table II, 2 WAT, 11.2 kg/h, formulated in anhydrous tetrahydrofuran
[3] = Table II, 4 WAT, 5.6 kg/h, formulated in anhydrous tetrahydrofuran
[4] = Table II, 4 WAT, 11.2 kg/h, formulated in anhydrous tetrahydrofuran
[5] = Table III, 2 WAT, 1.1 kg/h, formulated in anhydrous tetrahydrofuran
[6] = Table III, 2 WAT, 5.6 kg/h, formulated in anhydrous tetrahydrofuran
[7] = Table III, 2 WAT, .28 kg/h, formulated in anhydrous tetrahydrofuran
[8] = Table III, 4 WAT, 1.1 kg/h, formulated in anhydrous tetrahydrofuran
[9] = Table III, 4 WAT, 5.6 kg/h, formulated in anhydrous tetrahydrofuran
[10] = Table III, 4 WAT, .28 kg/h, formulated in anhydrous tetrahydrofuran
[11] = 2 WAT, 1.1 kg/h, formulated in anhydrous tetrahydrofuran
[12] = 2 WAT, 5.6 kg/h, formulated in anhydrous tetrahydrofuran
[13] = 2 WAT, .28 kg/h, formulated in anhydrous tetrahydrofuran
[14] = 4 WAT, 1.1 kg/h, formulated in anhydrous tetrahydrofuran
[15] = 4 WAT, 5.6 kg/h, formulated in anhydrous tetrahydrofuran
[16] = 4 WAT, .28 kg/h, formulated in anhydrous tetrahydrofuran

CCCCOC(=O)CNCP(=O)(O)O[Si](c1ccccc1)(c1ccccc1)C(C)(C)C [Ex. 6, Glycine, N--((([(1,1-Dimethylethyl)Diphenylsilyl]Oxy)Hydroxyphosphinyl)methyl)-Butyl Ester]
Plant Response Index (E) (Common Lambsquarters; Table II, 2 WAT, 5.6 kg/h): 2 (50-74% inhibition) | Plant Response Index (E) (Common Lambsquarters; [1]): 1 (25-49% inhibition) | Plant Response Index (E) (Common Lambsquarters; Table II, 2 WAT, 11.2 kg/h): 3 (75-99% inhibition) | Plant Response Index (E) (Common Lambsquarters; [2]): 3 (75-99% inhibition) | Plant Response Index (E) (Common Lambsquarters; Table II, 4 WAT, 5.6 kg/h): 2 (50-74% inhibition) | Plant Response Index (E) (Common Lambsquarters; [3]): 3 (75-99% inhibition) | Plant Response Index (E) (Common Lambsquarters; Table II, 4 WAT, 11.2 kg/h): 4 (100% inhibition) | Plant Response Index (E) (Common Lambsquarters; [4]): 4 (100% inhibition) | Plant Response Index (E) (Common Lambsquarters; Table III, 2 WAT, 1.1 kg/h): 3 (75-99% inhibition) | Plant Response Index (E) (Common Lambsquarters; [5]): 3 (75-99% inhibition) | Plant Response Index (E) (Common Lambsquarters; Table III, 2 WAT, 5.6 kg/h): 3 (75-99% inhibition) | Plant Response Index (E) (Common Lambsquarters; [6]): 3 (75-99% inhibition) | Plant Response Index (E) (Common Lambsquarters; Table III, 2 WAT, .28 kg/h): 3 (75-99% inhibition) | Plant Response Index (E) (Common Lambsquarters; [7]): 1 (25-49% inhibition) | Plant Response Index (E) (Common Lambsquarters; Table III, 4 WAT, 1.1 kg/h): 3 (75-99% inhibition) | Plant Response Index (E) (Common Lambsquarters; [8]): 4 (100% inhibition) | Plant Response Index (E) (Common Lambsquarters; Table III, 4 WAT, 5.6 kg/h): 3 (75-99% inhibition) | Plant Response Index (E) (Common Lambsquarters; [9]): 4 (100% inhibition) | Plant Response Index (E) (Common Lambsquarters; [10]): 1 (25-49% inhibition) | Plant Response Index (K) (Barnyardgrass; Table II, 2 WAT, 5.6 kg/h): 1 (25-49% inhibition) | Plant Response Index (K) (Barnyardgrass; [1]): 1 (25-49% inhibition) | Plant Response Index (K) (Barnyardgrass; Table II, 2 WAT, 11.2 kg/h): 2 (50-74% inhibition) | Plant Response Index (K) (Barnyardgrass; [2]): 1 (25-49% inhibition) | Plant Response Index (K) (Barnyardgrass; Table II, 4 WAT, 5.6 kg/h): 2 (50-74% inhibition) | Plant Response Index (K) (Barnyardgrass; [3]): 2 (50-74% inhibition) | Plant Response Index (K) (Barnyardgrass; Table II, 4 WAT, 11.2 kg/h): 3 (75-99% inhibition) | Plant Response Index (K) (Barnyardgrass; [4]): 1 (25-49% inhibition) | Plant Response Index (K) (Barnyardgrass; Table III, 2 WAT, 1.1 kg/h): 2 (50-74% inhibition) | Plant Response Index (K) (Barnyardgrass; [5]): 2 (50-74% inhibition) | Plant Response Index (K) (Barnyardgrass; Table III, 2 WAT, 5.6 kg/h): 3 (75-99% inhibition) | Plant Response Index (K) (Barnyardgrass; [6]): 2 (50-74% inhibition) | Plant Response Index (K) (Barnyardgrass; Table III, 2 WAT, .28 kg/h): 2 (50-74% inhibition) | Plant Response Index (K) (Barnyardgrass; [7]): 0 (0-24% inhibition) | Plant Response Index (K) (Barnyardgrass; Table III, 4 WAT, 1.1 kg/h): 2 (50-74% inhibition) | Plant Response Index (K) (Barnyardgrass; [8]): 2 (50-74% inhibition) | Plant Response Index (K) (Barnyardgrass; Table III, 4 WAT, 5.6 kg/h): 3 (75-99% inhibition) | Plant Response Index (K) (Barnyardgrass; [9]): 2 (50-74% inhibition) | Plant Response Index (K) (Barnyardgrass; [10]): 0 (0-24% inhibition) | Plant Response Index (T) (Large Crabgrass; 2 WAT, 1.1 kg/h): 4 (100% inhibition) | Plant Response Index (T) (Large Crabgrass; [11]): 4 (100% inhibition) | Plant Response Index (T) (Large Crabgrass; 2 WAT, 5.6 kg/h): 4 (100% inhibition) | Plant Response Index (T) (Large Crabgrass; [12]): 4 (100% inhibition) | Plant Response Index (T) (Large Crabgrass; 2 WAT, .28 kg/h): 4 (100% inhibition) | Plant Response Index (T) (Large Crabgrass; [13]): 1 (25-49% inhibition) | Plant Response Index (T) (Large Crabgrass; 4 WAT, 1.1 kg/h): 4 (100% inhibition) | Plant Response Index (T) (Large Crabgrass; [14]): 4 (100% inhibition) | Plant Response Index (T) (Large Crabgrass; 4 WAT, 5.6 kg/h): 4 (100% inhibition) | Plant Response Index (T) (Large Crabgrass; [15]): 4 (100% inhibition) | Plant Response Index (T) (Large Crabgrass; [16]): 0 (0-24% inhibition) | Plant Response Index (C) (Velvetleaf; Table II, 2 WAT, 5.6 kg/h): 0 (0-24% inhibition) | Plant Response Index (C) (Velvetleaf; [1]): 0 (0-24% inhibition) | Plant Response Index (C) (Velvetleaf; Table II, 2 WAT, 11.2 kg/h): 2 (50-74% inhibition) | Plant Response Index (C) (Velvetleaf; [2]): 0 (0-24% inhibition) | Plant Response Index (C) (Velvetleaf; Table II, 4 WAT, 5.6 kg/h): 0 (0-24% inhibition) | Plant Response Index (C) (Velvetleaf; [3]): 0 (0-24% inhibition) | Plant Response Index (C) (Velvetleaf; Table II, 4 WAT, 11.2 kg/h): 1 (25-49% inhibition) | Plant Response Index (C) (Velvetleaf; [4]): 1 (25-49% inhibition) | Plant Response Index (C) (Velvetleaf; Table III, 2 WAT, 1.1 kg/h): 1 (25-49% inhibition) | Plant Response Index (C) (Velvetleaf; [5]): 1 (25-49% inhibition) | Plant Response Index (C) (Velvetleaf; Table III, 2 WAT, 5.6 kg/h): 2 (50-74% inhibition) | Plant Response Index (C) (Velvetleaf; [6]): 2 (50-74% inhibition) | Plant Response Index (C) (Velvetleaf; Table III, 2 WAT, .28 kg/h): 0 (0-24% inhibition) | Plant Response Index (C) (Velvetleaf; [7]): 0 (0-24% inhibition) | Plant Response Index (C) (Velvetleaf; Table III, 4 WAT, 1.1 kg/h): 1 (25-49% inhibition) | Plant Response Index (C) (Velvetleaf; [8]): 1 (25-49% inhibition) | Plant Response Index (C) (Velvetleaf; Table III, 4 WAT, 5.6 kg/h): 2 (50-74% inhibition) | Plant Response Index (C) (Velvetleaf; [9]): 2 (50-74% inhibition) | Plant Response Index (C) (Velvetleaf; [10]): 0 (0-24% inhibition) | Plant Response Index (Q) (Wild Buckwheat; 2 WAT, 1.1 kg/h): 2 (50-74% inhibition) | Plant Response Index (Q) (Wild Buckwheat; [11]): 2 (50-74% inhibition) | Plant Response Index (Q) (Wild Buckwheat; 2 WAT, 5.6 kg/h): 2 (50-74% inhibition) | Plant Response Index (Q) (Wild Buckwheat; [12]): 2 (50-74% inhibition) | Plant Response Index (Q) (Wild Buckwheat; 2 WAT, .28 kg/h): 1 (25-49% inhibition) | Plant Response Index (Q) (Wild Buckwheat; [13]): 1 (25-49% inhibition) | Plant Response Index (Q) (Wild Buckwheat; 4 WAT, 1.1 kg/h): 1 (25-49% inhibition) | Plant Response Index (Q) (Wild Buckwheat; [14]): 2 (50-74% inhibition) | Plant Response Index (Q) (Wild Buckwheat; 4 WAT, 5.6 kg/h): 3 (75-99% inhibition) | Plant Response Index (Q) (Wild Buckwheat; [15]): 2 (50-74% inhibition) | Plant Response Index (Q) (Wild Buckwheat; [16]): 1 (25-49% inhibition) | Plant Response Index (F) (Pennsylvania Smartweed; Table II, 2 WAT, 5.6 kg/h): 0 (0-24% inhibition) | Plant Response Index (F) (Pennsylvania Smartweed; [1]): 0 (0-24% inhibition) | Plant Response Index (F) (Pennsylvania Smartweed; Table II, 2 WAT, 11.2 kg/h): 2 (50-74% inhibition) | Plant Response Index (F) (Pennsylvania Smartweed; [2]): 0 (0-24% inhibition) | Plant Response Index (F) (Pennsylvania Smartweed; Table II, 4 WAT, 5.6 kg/h): 0 (0-24% inhibition) | Plant Response Index (F) (Pennsylvania Smartweed; [3]): 0 (0-24% inhibition) | Plant Response Index (F) (Pennsylvania Smartweed; Table II, 4 WAT, 11.2 kg/h): 2 (50-74% inhibition) | Plant Response Index (F) (Pennsylvania Smartweed; [4]): 0 (0-24% inhibition) | Plant Response Index (F) (Pennsylvania Smartweed; Table III, 2 WAT, 1.1 kg/h): 2 (50-74% inhibition) | Plant Response Index (F) (Pennsylvania Smartweed; [5]): 3 (75-99% inhibition) | Plant Response Index (F) (Pennsylvania Smartweed; Table III, 2 WAT, 5.6 kg/h): 3 (75-99% inhibition) | Plant Response Index (F) (Pennsylvania Smartweed; Table III, 2 WAT, .28 kg/h): 3 (75-99% inhibition) | Plant Response Index (F) (Pennsylvania Smartweed; [7]): 1 (25-49% inhibition) | Plant Response Index (F) (Pennsylvania Smartweed; Table III, 4 WAT, 1.1 kg/h): 3 (75-99% inhibition) | Plant Response Index (F) (Pennsylvania Smartweed; [8]): 4 (100% inhibition) | Plant Response Index (F) (Pennsylvania Smartweed; Table III, 4 WAT, 5.6 kg/h): 3 (75-99% inhibition) | Plant Response Index (F) (Pennsylvania Smartweed; [10]): 1 (25-49% inhibition) | Plant Response Index (L) (Soybean; 2 WAT, 1.1 kg/h): 1 (25-49% inhibition) | Plant Response Index (L) (Soybean; [11]): 1 (25-49% inhibition) | Plant Response Index (L) (Soybean; 2 WAT, 5.6 kg/h): 1 (25-49% inhibition) | Plant Response Index (L) (Soybean; [12]): 2 (50-74% inhibition) | Plant Response Index (L) (Soybean; 2 WAT, .28 kg/h): 0 (0-24% inhibition) | Plant Response Index (L) (Soybean; [13]): 1 (25-49% inhibition) | Plant Response Index (L) (Soybean; 4 WAT, 1.1 kg/h): 1 (25-49% inhibition) | Plant Response Index (L) (Soybean; [14]): 1 (25-49% inhibition) | Plant Response Index (L) (Soybean; 4 WAT, 5.6 kg/h): 1 (25-49% inhibition) | Plant Response Index (L) (Soybean; [15]): 2 (50-74% inhibition) | Plant Response Index (L) (Soybean; [16]): 1 (25-49% inhibition)

Source: patent publication US4471131A, “Novel silyl esters of N-phosphonomethylglycine” (Monsanto Company, priority 1983, dated 1984)
